Data taken from patent US4775671A, “Imidazodiazepines” (Hoffmann-La Roche Inc., priority 1984, dated 1988).

Columns and labels:
[1] = Acute toxicity, single oral administration to mice; settings: mouse, in vivo
Description: The results which have been obtained with representative members of the class of compound defined by general formula I in the experiments described previously are compiled in the following Table. Moreover, the Table contains data concerning the acute toxicity of some of these compounds (LD50 in mg/kg in the case of single oral administration to mice).

[2] = tested on: spasmodic seizures caused by pentetrazole; assay: Antipentetrazole test (anticonvulsant); format: in vivo; settings: Rattus norvegicus, po, 0.5 h; female rats 60-80 g, p.o., 30 minutes before 120 mg/kg pentetrazole i.p.; protects 50% of animals
Method: The central properties of the compounds of formula I in accordance with the invention can be determined, for example, in the antipentetrazole test which is described hereinafter and which is generally recognized for recording anticonvulsant properties.
In this animal experiment the compound under investigation is administered orally to female rats weighing 60-80 g and 30 minutes later there are administered i.p. 120 mg/kg of pentetrazole, which causes emprosthotonus and tonic stretchings of the fore and/or hind limbs in unprotected experimental animals 1-4 minutes after the injection. Ten experimental animals are used per dosage of test substance. After counting the protected experimental animals the ED50 is determined according to the Probit method. The ED50 is that dosage which protects 50% of the experimental animals from the spasmodic seizures caused by pentetrazole.

[3] = target: central benzodiazepine receptors; assay: Inhibition of binding of tritiated diazepam at specific benzodiazepine receptors in the cerebral cortex; settings: 50 percent inhibition of specific binding of tritiated diazepam
Method: The affinity of compounds of general formula I to the central benzodiazepine receptors was determined according to the method described in Life Science 20, 2101-2110 (1977) and Science 198, 849-851 ([…]). According to this method, the inhibition of the binding of tritiated diazepam at the specific benzodiazepine receptors in the cerebral cortex by the respective test substances is ascertained. The IC50 ("50% inhibiting concentration") is that concentration of the respective test substance which brings about a 50 percent inhibition of the specific binding of the tritiated diazepam at the specific benzodiazepine receptors in the cerebral cortex.

SMILES | LD50 [1] | ED50 [2] | IC50 [3]
Cc1noc(-c2ncn3c2[C@@H]2CCCN2C(=O)c2c(Cl)cccc2-3)n1 | 2000 to 4000 mg/kg | 0.08 mg/kg | 2.3 nM
Cc1nnc(-c2ncn3c2[C@@H]2CCCN2C(=O)c2c(Cl)cccc2-3)o1 | 312 to 625 mg/kg | 2.7 mg/kg | 8.4 nM
Cc1noc(-c2ncn3c2CN(C)C(=O)c2c(Cl)cccc2-3)n1 | 1250 to 2500 mg/kg | 0.43 mg/kg | 3.9 nM
O=C1c2c(Cl)cccc2-n2cnc(-c3noc(C(F)(F)F)n3)c2[C@@H]2CCCN12 | – | 1.2 mg/kg | 9.6 nM
CN1Cc2c(-c3nc(C4CC4)no3)ncn2-c2cccc(Cl)c2C1=O | – | 0.034 mg/kg | 4.5 nM
O=C1c2c(Cl)cccc2-n2cnc(-c3nc(C4CC4)no3)c2[C@@H]2CCCN12 | 1250 to 2500 mg/kg | 0.2 mg/kg | 2.2 nM
CN1Cc2c(-c3nc(C4CC4)no3)ncn2-c2ccc(F)cc2C1=O | – | 0.23 mg/kg | 5.6 nM
COCc1noc(-c2ncn3c2[C@@H]2CCCN2C(=O)c2c(Cl)cccc2-3)n1 | – | 0.39 mg/kg | 5.2 nM
Cc1noc(-c2ncn3c2C2CCN2C(=O)c2c(Cl)cccc2-3)n1 (racemic) | – | 0.32 mg/kg | 10 nM
Cc1noc(-c2ncn3c2[C@@H]2CCCN2C(=O)c2c-3ccc(F)c2Cl)n1 [Example 4, (S)-8-chloro-7-fluoro-11,12,13,13a-tetrahydro-1-(3-methyl-1,2,4-oxadiazol-5-yl)-9H-imidazo[1,5-a]pyrrolo[2,1-c][1,4]benzodiazepin-9-one] | 1250 to 2500 mg/kg | 0.082 mg/kg | 5.2 nM
Cc1noc(-c2ncn3c2[C@@H]2CCCN2C(=O)c2c(Br)cccc2-3)n1 [Example 5, (S)-8-bromo-11,12,13,13a-tetrahydro-1-(3-methyl-1,2,4-oxadiazol-5-yl)9H-imidazo[1,5-a]pyrrolo[2,1-c][1,4] benzodiazepin-9-one] | 2500 to 5000 mg/kg | 0.068 mg/kg | 2.1 nM
Cc1noc(-c2ncn3c2[C@@H]2CCN2C(=O)c2c-3cccc2C(F)(F)F)n1 [Example 9, (S)-12,12a-dihydro-1-(3-methyl-1,2,4-oxadiazol-5-yl)-8-(trifluoromethyl)-9H,11H-azeto[2,1-c]imidazo[1,5-a][1,4]benzodiazepin-9-one] | – | 0.021 mg/kg | 3.7 nM
CON=Cc1ncn2c1[C@@H]1CCN1C(=O)c1c(Cl)cccc1-2 [Example 23, (S)-8-chloro-12,12a-dihydro-9-oxo-9H,11H-azeto[2,1-c]imidazo[1,5-a][1,4]benzodiazepine-1-carboxaldehyde O-methyl oxime] | – | 0.63 mg/kg | 10 nM
